Experimental data published in patent US20250082656A1, “DOSAGE REGIMENS FOR TREATMENT OF DENGUE INFECTION” (Atea Pharmaceuticals, Inc., priority 2022, published 2025).

Tests used:
[1] = system: NS5 RNA dependent RNA polymerase (RdRp); assay: Competitive nucleotide incorporation assays, all four DENV serotypes (summary); type: biochemical, Dengue virus; settings: approximately
Procedure: As described in Example 10 and shown in FIG. 1, the active metabolite of Compound 2 or Compound 1 (Compound 5) acts as a GTP analog and is incorporated into RNA by the NS5 RNA dependent RNA polymerase (RdRp), immediately terminating synthesis.
(§1) The chain-terminating efficiency of Compound 5 was measured in competitive nucleotide incorporation assays using all four DENV serotypes. […] In comparison, sofosbuvir triphosphate is incorporated into the RNA less than 1 time for every 100 UTP (native uridine triphosphate) incorporations.

DENV2 NS5 = DENV2 NS5 (Dengue virus type 2, UniProt P14340); assay: Nucleotide analogue incorporation / discrimination assay, DENV2 NS5; type: biochemical
Procedure: as §1
The experimental procedure is provided in Example 10.
(§2) Measurements and quantitations were as in FIG. 19B.
DENV NS5 was preincubated with the annealed P10/T20 RNA in an assembly buffer containing 20 mM HEPES pH 7.5, 10% glycerol, 5 mM MgCl2 and 5 mM DTT for 10 min at 30° C. to create an active RNA elongation complex. Reactions were started by adding AT-9010 with either all four NTPs, or UTP, ATP and CTP only. […] Reactions were quenched at indicated timepoints in 2× volume FBD stop solution (formamide, 10 mM EDTA) and analysed on 20% acrylamide:bisacrylamide (19:1), […] sequencing gels. RNA products were visualized using a Typhoon FluorImager and analyzed using ImageQuant software.
(§3) DENV NS5 was pre-incubated with the annealed P10/T20 RNA in an assembly buffer containing 20 mM HEPES pH 7.5, 10% glycerol, 5 mM MgCl2, and 5 mM DTT for 10 min at 30° C. to create an active RNA elongation complex.
(§4) Reactions were started by adding AT-9010 with either all four NTPs or UTP, ATP, and CTP only.
(§5) Single nucleotide incorporation was tested as follows. Reactions were started by adding the corresponding NTP or analogue. Final concentrations were 1 μM NS5, 0.25 μM P10/T20, 100 μM NTP or analogue in a final buffer containing 20 mM HEPES pH 7.5, 15% glycerol, 5 mM MgCl2, and 5 mM DTT.
(§6) Reactions were quenched at the designated time points in 3× volume FBD stop solution (formamide, 10 mM EDTA) and analyzed on 20% acrylamide-bisacrylamide (19:1) […] sequencing gels. RNA products were visualized using a Typhoon FluorImager then analyzed and quantified using ImageQuant software.

DENV4 NS5 = DENV4 NS5 (Dengue virus type 4, UniProt P09866); assay: Nucleotide analogue incorporation / discrimination assay, DENV4 NS5; type: biochemical; settings: GTP for AT-9010 and AT-9002, UTP for SOF-TP
Procedure: as §1
The nature of regular inserted Watson-Crick nucleotides is indicated in the right of the gel. […] Quantification of band-products greater in size than the G/AT (+5) band relative to the G/AT (+5) band were measured using a Typhoon FluorImager, and allowed to calculate the discrimination value. The incorporation rates for […] and AT9002 are compared to that of GTP, and to that of UTP in the case of SOF-TP.
as §2, §3, §4, §5, §6

DENV2 MTase domain = DENV2 MTase domain (Dengue virus type 2, UniProt P14340); assay: Thermal shift assay, DENV2 MTase domain; settings: read-out: ΔTM
[2] = target: human cellular DNA-dependent DNA polymerase γ (Homo sapiens, UniProt P54098); settings: previously shown (Good et al.); read-out: estimated IC50; cited from earlier work
DENV3 RdRp domain = assay: Thermal shift assay, DENV3 RdRp domain; settings: RdRp domain DENV3, 100 μM compound
DENV-3 = assay: microbe, parasite or virus in culture; settings: Dengue virus, DENV3, Huh-7
HIV-1 = assay: Antiviral specificity panel, HIV-1; type: cell-based; settings: Human immunodeficiency virus 1; RNA virus, CEM-SS
Dengue serotype 2 = assay: In vitro antiviral potency, summary over strains, Dengue serotype 2; type: cell-based; settings: Dengue virus
[3] = Cytotoxicity in Vero cells; type: cell-based; settings: African green monkey, Table 2, Vero, parallel to the virus of the line
Procedure: To assess the antiviral specificity of Compound 1 (AT-281), serial dilutions were incubated with various host cell lines infected with a panel of DNA and RNA viruses other than flaviviruses. The activity of Compound 1 (AT-281) was measured in infected cells using the neutral red assay to determine the effective concentration required to inhibit viral replication 50% (EC50) (described in Example 3) and the threshold concentration required to obtain a perceptible effect on 50% of the cells incubated without virus (CC50). Compound 1 (AT-281) had no activity against the DNA viruses tested and was only weakly or not active against several RNA viruses (Table 2).

HCV = assay: Antiviral specificity panel, HCV; type: cell-based, hepatitis C virus
DENV-4 = assay: Antiviral assay with FC read-out, DENV-4; type: cell-based; settings: Dengue virus, DENV4; DENV-4 TVP-360, Huh-7, FC read-out
DENV-2 = assay: microbe, parasite or virus in culture; settings: Dengue virus, DENV2, Huh-7

Sequence of DENV4 NS5 (P09866 2488-3387): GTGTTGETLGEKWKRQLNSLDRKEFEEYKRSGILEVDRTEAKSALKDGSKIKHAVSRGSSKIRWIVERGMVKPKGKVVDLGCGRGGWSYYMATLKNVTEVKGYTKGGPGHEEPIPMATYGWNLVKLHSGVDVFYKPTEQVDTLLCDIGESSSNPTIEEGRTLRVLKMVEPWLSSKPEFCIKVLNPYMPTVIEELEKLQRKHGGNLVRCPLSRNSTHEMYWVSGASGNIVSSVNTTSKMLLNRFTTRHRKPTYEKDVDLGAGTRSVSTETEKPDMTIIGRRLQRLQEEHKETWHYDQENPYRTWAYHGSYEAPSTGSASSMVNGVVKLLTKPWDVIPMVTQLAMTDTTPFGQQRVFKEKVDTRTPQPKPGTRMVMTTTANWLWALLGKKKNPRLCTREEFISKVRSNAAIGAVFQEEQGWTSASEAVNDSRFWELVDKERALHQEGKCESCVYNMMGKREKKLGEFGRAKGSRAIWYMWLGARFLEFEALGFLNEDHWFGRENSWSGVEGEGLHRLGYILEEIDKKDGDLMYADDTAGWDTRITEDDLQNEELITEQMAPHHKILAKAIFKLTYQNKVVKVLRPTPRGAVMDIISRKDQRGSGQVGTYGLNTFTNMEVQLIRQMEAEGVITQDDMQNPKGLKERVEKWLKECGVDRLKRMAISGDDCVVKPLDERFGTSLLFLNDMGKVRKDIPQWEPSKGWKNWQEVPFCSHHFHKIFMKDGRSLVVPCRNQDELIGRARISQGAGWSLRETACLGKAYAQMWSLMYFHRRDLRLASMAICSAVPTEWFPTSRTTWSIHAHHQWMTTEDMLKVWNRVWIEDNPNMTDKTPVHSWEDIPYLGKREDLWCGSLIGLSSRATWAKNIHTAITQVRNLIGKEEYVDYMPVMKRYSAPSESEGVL
Sequence of human cellular DNA-dependent DNA polymerase γ (P54098 whole entry, the tested form may be a part): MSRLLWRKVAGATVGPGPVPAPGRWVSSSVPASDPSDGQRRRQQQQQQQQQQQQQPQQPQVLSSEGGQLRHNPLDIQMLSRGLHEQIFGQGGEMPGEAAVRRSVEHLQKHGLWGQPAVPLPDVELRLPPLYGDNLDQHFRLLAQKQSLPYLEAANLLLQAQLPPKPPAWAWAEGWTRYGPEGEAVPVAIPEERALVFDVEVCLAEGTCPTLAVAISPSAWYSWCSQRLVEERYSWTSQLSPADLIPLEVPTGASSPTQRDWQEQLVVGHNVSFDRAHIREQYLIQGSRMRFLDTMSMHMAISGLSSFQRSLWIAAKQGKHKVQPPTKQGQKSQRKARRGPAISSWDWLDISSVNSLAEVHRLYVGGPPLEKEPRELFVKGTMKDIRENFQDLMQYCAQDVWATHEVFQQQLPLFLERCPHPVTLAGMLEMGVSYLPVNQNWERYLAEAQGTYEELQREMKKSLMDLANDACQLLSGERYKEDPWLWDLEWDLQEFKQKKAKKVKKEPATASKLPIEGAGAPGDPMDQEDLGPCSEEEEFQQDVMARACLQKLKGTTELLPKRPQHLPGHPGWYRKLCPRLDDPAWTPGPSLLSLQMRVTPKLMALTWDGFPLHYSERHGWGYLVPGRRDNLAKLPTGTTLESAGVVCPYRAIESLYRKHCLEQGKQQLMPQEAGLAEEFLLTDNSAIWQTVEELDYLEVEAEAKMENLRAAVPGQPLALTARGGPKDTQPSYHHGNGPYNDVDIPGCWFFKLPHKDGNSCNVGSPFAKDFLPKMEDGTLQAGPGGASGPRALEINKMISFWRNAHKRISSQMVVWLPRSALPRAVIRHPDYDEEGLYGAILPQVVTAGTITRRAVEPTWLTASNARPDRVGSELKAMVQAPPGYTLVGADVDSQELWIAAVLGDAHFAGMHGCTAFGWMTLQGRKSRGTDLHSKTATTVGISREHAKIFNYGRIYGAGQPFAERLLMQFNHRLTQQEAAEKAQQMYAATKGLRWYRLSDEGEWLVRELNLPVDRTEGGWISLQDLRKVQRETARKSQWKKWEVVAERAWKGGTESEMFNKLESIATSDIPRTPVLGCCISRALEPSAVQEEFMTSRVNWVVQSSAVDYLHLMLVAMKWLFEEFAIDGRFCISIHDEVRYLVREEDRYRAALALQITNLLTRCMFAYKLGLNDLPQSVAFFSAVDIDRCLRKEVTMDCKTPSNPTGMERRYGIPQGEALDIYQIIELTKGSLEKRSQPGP
Sequence of DENV2 MTase domain (P14340 2493-2755 limits assumed): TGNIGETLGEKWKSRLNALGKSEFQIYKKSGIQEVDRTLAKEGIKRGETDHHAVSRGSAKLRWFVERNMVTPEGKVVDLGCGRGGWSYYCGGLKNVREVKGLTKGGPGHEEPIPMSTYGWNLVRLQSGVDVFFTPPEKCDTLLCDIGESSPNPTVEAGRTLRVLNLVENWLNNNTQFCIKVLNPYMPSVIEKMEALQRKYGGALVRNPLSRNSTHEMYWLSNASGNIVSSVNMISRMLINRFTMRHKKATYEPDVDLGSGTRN

Structure (SMILES)	GTPs incorporated for one AT-9010 incorporated [1]	Preference (discrimination) native nucleotide > analogue (DENV2 NS5; DENV2, GTP for AT-9010 and AT-9002, UTP for SOF-TP)	discrimination factor (preference for GTP>Compound 5) (DENV2 NS5; DENV-2 NS5, all four NTPs, band product intensities)	effect on RNA synthesis after incorporation (DENV2 NS5; absence of GTP, next correct nucleotide (UTP) present)	Preference (discrimination) native nucleotide > analogue (DENV4 NS5)	ΔTm at 100 µM (DENV2 MTase domain) [°C]	IC50 [2] [nM]	ΔTM (DENV3 RdRp domain) [°C]	EC50 (DENV-3) [nM]	EC50 (HIV-1) [nM]	EC50 (Dengue serotype 2) [nM]	CC50 [3] [nM]	selectivity towards HCV (HCV; CC50/EC50)	EC50 (HCV; Hepatitis C virus, RNA virus, Huh-7) [nM]	EC50 (DENV-4) [nM]	EC50 (DENV-2) [nM]
C[C@@]1(F)[C@H](O)[C@@H](COP(=O)(O)OP(=O)(O)OP(=O)(O)O)O[C@H]1n1cnc2c(=O)[nH]c(N)nc21 [Compound 5]	7-8	9.3 ± 0.1	12.6±4.3	immediate chain-termination of RNA synthesis	11.2 ± 0.7	4 ± 0.1	> 100000	3.2 ± 0.1	–	–	–	–	–	–	–	–
CNc1nc(N)nc2c1ncn2[C@@H]1O[C@H](CO[P@](=O)(N[C@@H](C)C(=O)OC(C)C)Oc2ccccc2)[C@@H](O)[C@@]1(C)F [Compound 1, isopropyl ((R)-(((2R,3R,4R,5R)-5-(2-amino-6-(methylamino)-9H-purin-9-yl)-4-fluoro-3-hydroxy-4-methyltetrahydrofuran-2-yl)methoxy)(phenoxy)phosphoryl)-L-alaninate]	–	–	–	–	–	–	–	–	750	> 100000	< 7000	> 100000	> 2,000	50	1190	300
